Experimental data from paper PMC8467567, “Selective Targeting of Human and Animal Pathogens of the Helicobacter Genus by Flavodoxin Inhibitors: Efficacy, Synergy, Resistance and Mechanistic Studies” (International Journal of Molecular Sciences, 2021).

Legend:
[1] = target: T1, Hp-Fld (H. pylori flavodoxin) (Helicobacter pylori, UniProt O25776, A55W); assay: biochemical
T1 construct: gene fldA
Source text: (§1) isothermal titration calorimetry on Hp-Fld (H. pylori flavodoxin)

[2] = target: T2, Hp-Fld (H. pylori flavodoxin) (Helicobacter pylori, UniProt O25776, D142Y); assay: biochemical
T2 construct: gene fldA
Source text: as §1

[3] = target: T3, Hp-Fld (H. pylori flavodoxin) (Helicobacter pylori, UniProt O25776, N14A); assay: biochemical
T3 construct: gene fldA
Source text: as §1

[4] = target: T4, Hp-Fld (H. pylori flavodoxin) (Helicobacter pylori, UniProt O25776, T116W); assay: biochemical
T4 construct: gene fldA
Source text: as §1

[5] = target: T5, Hp-Fld (H. pylori flavodoxin) (Helicobacter pylori, UniProt O25776, V113W); assay: biochemical
T5 construct: gene fldA
Source text: as §1

[6] = target: T6, Hp-Fld (H. pylori flavodoxin) (Helicobacter pylori, UniProt O25776); assay: isothermal titration calorimetry; type: binding
T6 construct: gene fldA; recombinant from pET28a-fldA in E. coli BL21 (DE3); DEAE purification, no tag mentioned; FMN added during lysis, transformed into holoprotein if needed
T6 sequence (O25776 1-164): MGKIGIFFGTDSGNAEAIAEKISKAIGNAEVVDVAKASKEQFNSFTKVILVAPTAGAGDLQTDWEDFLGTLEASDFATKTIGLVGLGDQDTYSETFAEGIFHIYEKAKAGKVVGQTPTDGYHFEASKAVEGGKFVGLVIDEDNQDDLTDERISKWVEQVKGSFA

[7] = target: T6, Hp-Fld (H. pylori flavodoxin); assay: biochemical; parameters: isothermal titration calorimetry of compounds binding to recombinant wild-type Hp-Fld, pH 9
Procedure: Isothermal titration calorimetry (ITC) experiments were carried out in an Auto-iTC200 calorimeter (MicroCal, Malvern-Panalytical, Malvern, UK) in order to characterise the affinity of the wild-type Hp-Fld protein and the different mutants N14A, A55W, V113W, Q115W, T116W, K133A and D142Y for the different compounds. Recombinant Hp-Fld at 10–20 µM concentration in 50 mM EPPS buffer, pH 9 (for IV, IV-a, IV-b, IV-c, rac-IV-j, rac-IV-k and rac-IV-l), or in 50 mM Tris-HCl buffer, pH 9 (for IV-d) was titrated with 120–300 µM ligand solutions in the same buffer, prepared from stock compound solutions in 100% DMSO. At the residual DMSO concentration of 2.5% employed in the working solutions, wild-type flavodoxin has been described to be conformationally stable and biochemically active. Thermodynamic parameters of the binding equilibrium were calculated by non-linear least-squares regression analysis considering a single ligand binding site and using the user-defined fitting routines in the MicroCal LLC ITC module from the Origin 7.0 software (Northampton, MA, USA). Interaction between wild-type Hp-Fld and compounds IV, IV-a, IV-b, IV-c, IV-d, rac-IV-j, rac-IV-k and rac-IV-l was evaluated by ITC (Figure S3 and Table S1).

COc1ccc(CSc2ccc([N+](=O)[O-])c3nonc23)cc1 [IV]
Kd [1]: 2330 nM
Kd [2]: 1180 nM
Kd [3]: 450 nM
Kd [4]: 1100 nM
Kd [5]: 500 nM
Kd ([6]; read-out: IV / Kd^b): 480 nM

COc1ccc(C2(C)SCc3cc(C)c(C)cc3CS2)cc1 [IV-b]
Kd [7]: 910 nM

COc1ccc(C[S+]([O-])c2ccc(N)c3nonc23)cc1 (stereo not drawn) [IV-d]
Kd [7]: 1550 nM

O=[N+]([O-])c1ccc(SCc2ccc(OCC(O)CO)cc2)c2nonc12 (racemic) [rac-IV-j, rac-3-(4-(((7-Nitrobenzo[c][1,2,5]oxadiazol-4-yl)thio)methyl)phenoxy)propane-1,2-diol]
Kd [7]: 2330 nM

COc1ccc(CSc2cc(Cl)c(N)c3nonc23)cc1 [IV-c]
Kd [1]: 1050 nM
Kd [2]: 440 nM
Kd [3]: 1760 nM
Kd [4]: 1430 nM
Kd [5]: 1450 nM
Kd ([6]; read-out: IV-c / Kd^b): 670 nM

Nc1ccc(SCc2ccc(OCC(O)CO)cc2)c2nonc12 (racemic) [rac-IV-k, rac-3-(4-(((7-Aminobenzo[c][1,2,5]oxadiazol-4-yl)thio)methyl)phenoxy)propane-1,2-diol]
Kd [7]: 3360 nM

Nc1ccc([S+]([O-])Cc2ccc(OCC(O)CO)cc2)c2nonc12 (racemic) [rac-IV-l, rac-3-(4-(((7-Aminobenzo[c][1,2,5]oxadiazol-4-yl)sulfinyl)methyl)phenoxy)propane-1,2-diol]
Kd [7]: 1650 nM

COc1ccc(CSc2ccc(N)c3nonc23)cc1 [IV-a]
Kd [7]: 5260 nM
